# Literature values as cited in patent US7115281B2, “Processes for the preparation of oral dosage formulations of modafinil” (Ranbaxy Laboratories Limited, priority 2002, dated 2006).
# Key:
# [1] = not given; remark: listed apart in the source
structure (smiles),measurement,setting,value
NC(=O)C[S+]([O-])C(c1ccccc1)c1ccccc1 (centres unmarked) [modafinil],Solubility in water,,less than 1 mg/ml
same,Stability at higher temperatures,[1],unstable
